Values after ≈ are worked out from the molar mass of the structure shown.
Assays:
[1] = system: WiDr; assay: Antiproliferative activity against human WiDr cells assessed as reduction in cell viability incubated for 72 hrs by MTT assay; format: functional, cell-based
[2] = system: HEp-2; assay: Antiproliferative activity against human HEp-2 cells assessed as reduction in cell viability incubated for 72 hrs by MTT assay; format: functional, cell-based; conditions: HEp-2, 72 h
[3] = system: RAW264.7; assay: Antiinflammatory activity against mouse RAW264.7 cells assessed as inhibition of LPS-NO production incubated for 24 hrs by Griess reagent based assay; format: functional, cell-based; conditions: RAW264.7, 24 h
[4] = system: RAW264.7; assay: Antiinflammatory activity against mouse RAW264.7 cells assessed as inhibition of LPS-NO production by Griess reagent based assay; format: functional, cell-based
[5] = system: HEp-2; assay: Antiproliferative activity against human HEp-2 cells assessed as reduction in cell growth incubated for 3 days by MTT assay; format: functional, cell-based; conditions: HEp-2, 72 h
[6] = system: WiDr; assay: Antiproliferative activity against human WiDr cells assessed as reduction in cell growth incubated for 3 days by MTT assay; format: functional, cell-based; conditions: 72 h
[7] = system: Candida albicans; assay: Antifungal activity against Candida albicans KCCM 10231 assessed as reduction in […] incubated for 12 hrs by micro-dilution method; format: functional
[8] = system: Aspergillus niger; assay: Antifungal activity against Aspergillus niger KCCM 11239 assessed as reduction in […] incubated for 12 hrs by micro-dilution method; format: functional
[9] = Antibacterial activity against Salmonella choleraesuis KCCM 11806 assessed as reduction in bacterial growth; format: functional, Salmonella enterica subsp. enterica serovar Choleraesuis; conditions: Salmonella enterica
[10] = system: Bacillus subtilis; assay: Antibacterial activity against Bacillus subtilis KCCM 11316 assessed as reduction in bacterial growth incubated for 12 hrs by broth micro-dilution method; format: functional
[11] = system: Proteus vulgaris; assay: Antibacterial activity against Proteus vulgaris KCCM 11906 assessed as reduction in bacterial growth incubated for 12 hrs by broth micro-dilution method; format: functional
[12] = system: Shigella sonnei; assay: Antibacterial activity against Shigella sonnei KCCM 40253 assessed as reduction in bacterial growth incubated for 12 hrs by micro-dilution method; format: functional
[13] = system: Haemophilus influenzae; assay: Antibacterial activity against Haemophilus influenzae KCCM 11903 assessed as reduction in bacterial growth incubated for 12 hrs by broth micro-dilution method; format: functional
[14] = system: Penicillium digitatum; assay: Antifungal activity against Penicillium digitatum KCCM 60140 assessed as reduction in […] incubated for 12 hrs by micro-dilution method; format: functional
[15] = system: Penicillium citrinum; assay: Antifungal activity against Penicillium citrinum KCCM 11663 assessed as reduction in […] incubated for 12 hrs by micro-dilution method; format: functional
[16] = system: Pseudomonas aeruginosa; assay: Antibacterial activity against Pseudomonas aeruginosa KCCM 11328 assessed as reduction in bacterial growth incubated for 12 hrs by micro-dilution method; format: functional
[17] = system: Klebsiella aerogenes; assay: Antibacterial activity against Enterobacter aerogenes KCCM 12177 assessed as reduction in bacterial growth incubated for 12 hrs by broth micro-dilution method; format: functional
[18] = system: Staphylococcus aureus; assay: Antibacterial activity against Staphylococcus aureus KCCM 11817 assessed as reduction in bacterial growth incubated for 12 hrs by broth micro-dilution method; format: functional
[19] = system: Salmonella typhimurium; assay: Antibacterial activity against Salmonella Typhimurium KCCM 11806 assessed as reduction in bacterial growth incubated for 12 hrs by micro-dilution method; format: functional, Salmonella enterica subsp. enterica serovar Typhimurium; conditions: Salmonella enterica
[20] = system: Enterococcus faecalis; assay: Antibacterial activity against Enterococcus faecalis KCCM 11814 assessed as reduction in bacterial growth incubated for 12 hrs by broth micro-dilution method; format: functional
[21] = system: Staphylococcus aureus; assay: Antibacterial activity against Staphylococcus aureus […] assessed as reduction in bacterial growth incubated for 12 hrs by broth micro-dilution method; format: functional
[22] = system: Escherichia coli; assay: Antibacterial activity against Escherichia coli KCCM 11234 assessed as reduction in bacterial growth incubated for 12 hrs by broth micro-dilution method; format: functional
[23] = system: Escherichia coli; assay: Antibacterial activity against Escherichia coli KCCM 11234 assessed as reduction in bacterial growth incubated; format: functional
[24] = system: Escherichia coli; assay: Antibacterial activity against Escherichia coli assessed as reduction in bacterial growth by broth microdilution method; format: functional

Compound	IC50 [1] [µM]	IC50 [2] [µM]	IC50 [3] [µM]	MIC [7] [µg/mL]	MIC [8] [µg/mL]	MIC [9] [µg/mL]	MIC [10] [µg/mL]	MIC [11] [µg/mL]	MIC [12] [µg/mL]	MIC [13] [µg/mL]	MIC [14] [µg/mL]	MIC [15] [µg/mL]	MIC [16] [µg/mL]	MIC [17] [µg/mL]	MIC [18] [µg/mL]	MIC [19] [µg/mL]	MIC [20] [µg/mL]	MIC [21] [µg/mL]	further results
C/C=C/C1=CC2=CC3=C(C(=O)CCCCCCC)C(=O)O[C@@]3(C)C(=O)C2=CO1	54.1	55.9	> 39.2	–	–	–	–	–	–	–	–	–	–	–	–	–	–	–	–
C/C=C/c1cc2c(cn1)C(=O)[C@](C)(O)[C@@H](CC(=O)CCCCC)C2	–	–	57.1	–	–	–	–	–	–	–	–	–	–	–	–	–	–	–	–
C/C=C/C1=CC2=C(CO1)C(=O)[C@](C)(O)[C@@H](CC(=O)CCCCC)C2	–	–	–	–	–	–	–	–	–	–	–	–	–	–	–	–	–	–	IC50 [4]: 22.6 µM; IC50 [5]: 77.6 µM; IC50 [6]: 55.3 µM
N[C@H](Cc1ccc(O)cc1)C(=O)O	–	–	–	16 (≈ 88.3 µM)	4 (≈ 22.1 µM)	4 (≈ 22.1 µM)	4 (≈ 22.1 µM)	16 (≈ 88.3 µM)	8 (≈ 44.2 µM)	16 (≈ 88.3 µM)	32 (≈ 177 µM)	4 (≈ 22.1 µM)	16 (≈ 88.3 µM)	16 (≈ 88.3 µM)	16 (≈ 88.3 µM)	4 (≈ 22.1 µM)	4 (≈ 22.1 µM)	8 (≈ 44.2 µM)	–
C/C=C/C1=CC2=C/C(=C(/C#N)C(=O)CCCCC)C(C)(O)C(=O)C2=CO1 (centres undefined)	–	–	2.6	–	–	–	–	–	–	–	–	–	–	–	–	–	–	–	–
N[C@@H](CS)C(=O)O [CYSTEINE]	–	–	–	16 (≈ 132 µM)	8 (≈ 66 µM)	16 (≈ 132 µM)	32 (≈ 264 µM)	8 (≈ 66 µM)	16 (≈ 132 µM)	8 (≈ 66 µM)	32 (≈ 264 µM)	32 (≈ 264 µM)	16 (≈ 132 µM)	8 (≈ 66 µM)	16 (≈ 132 µM)	8 (≈ 66 µM)	4 (≈ 33 µM)	16 (≈ 132 µM)	MIC [22]: 64 µg/mL (≈ 528 µM); MIC [23]: 64 µg/mL (≈ 528 µM)
N[C@@H](Cc1ccccc1)C(=O)O [PHENYLALANINE]	–	–	–	8 (≈ 48.4 µM)	8 (≈ 48.4 µM)	8 (≈ 48.4 µM)	8 (≈ 48.4 µM)	16 (≈ 96.9 µM)	16 (≈ 96.9 µM)	16 (≈ 96.9 µM)	16 (≈ 96.9 µM)	8 (≈ 48.4 µM)	8 (≈ 48.4 µM)	16 (≈ 96.9 µM)	16 (≈ 96.9 µM)	4 (≈ 24.2 µM)	4 (≈ 24.2 µM)	8 (≈ 48.4 µM)	MIC [22]: 8 µg/mL (≈ 48.4 µM); MIC [23]: 8 µg/mL (≈ 48.4 µM); MIC [24]: 16 µg/mL (≈ 96.9 µM)
N[C@@H](Cc1ccc(O)cc1)C(=O)O [TYROSINE]	–	–	–	8 (≈ 44.2 µM)	4 (≈ 22.1 µM)	8 (≈ 44.2 µM)	4 (≈ 22.1 µM)	32 (≈ 177 µM)	32 (≈ 177 µM)	32 (≈ 177 µM)	32 (≈ 177 µM)	8 (≈ 44.2 µM)	8 (≈ 44.2 µM)	4 (≈ 22.1 µM)	8 (≈ 44.2 µM)	16 (≈ 88.3 µM)	8 (≈ 44.2 µM)	8 (≈ 44.2 µM)	–
C/C=C/C1=CC2=CC3=C(C(=O)CCCCC)C(=O)O[C@@]3(C)[C@@](O)(CC(C)=O)C2=CO1	10.5	10.4	1.7	–	–	–	–	–	–	–	–	–	–	–	–	–	–	–	–
C/C=C/C1=CC2=CC3=C(C(=O)CCCCCCC)C(=O)O[C@@]3(C)[C@@](O)(CC(C)=O)C2=CO1	11	8.7	2.72	–	–	–	–	–	–	–	–	–	–	–	–	–	–	–	–

— ChEMBL document CHEMBL6103583, “Purified Monascus Pigments: Biological Activities and Mechanisms of Action” (J Nat Prod, 2025)
